Assays:
NpRdhA [1] = target: T1, NpRdhA (Nitratireductor pacificus, UniProt K2MB66, A419M); test: HPLC of dehalogenation products; format: biochemical; conditions: NADPH, spinach ferredoxin, E. coli flavodoxin reductase, 30 °C, anaerobic; C-terminal His tag
T1 construct: gene NA2_14372; full-length, N-terminal His6 tag (NpRdhA^N; crystals) or C-terminal His6 tag (NpRdhA^C; A419M); expressed in Bacillus megaterium; holds cobalamin and two [4Fe-4S] clusters

NpRdhA [2] = target: T2, NpRdhA (Nitratireductor pacificus, UniProt K2MB66); test: X-ray crystal structure, soaked crystals ([…] Å); format: binding; conditions: N-terminal His tag, 100 mM soak
T2 construct: gene NA2_14372; full-length, N-terminal His6 tag (NpRdhA^N; crystals) or C-terminal His6 tag (NpRdhA^C; A419M); expressed in Bacillus megaterium; holds cobalamin and two [4Fe-4S] clusters
T2 sequence (K2MB66 entry or part of it): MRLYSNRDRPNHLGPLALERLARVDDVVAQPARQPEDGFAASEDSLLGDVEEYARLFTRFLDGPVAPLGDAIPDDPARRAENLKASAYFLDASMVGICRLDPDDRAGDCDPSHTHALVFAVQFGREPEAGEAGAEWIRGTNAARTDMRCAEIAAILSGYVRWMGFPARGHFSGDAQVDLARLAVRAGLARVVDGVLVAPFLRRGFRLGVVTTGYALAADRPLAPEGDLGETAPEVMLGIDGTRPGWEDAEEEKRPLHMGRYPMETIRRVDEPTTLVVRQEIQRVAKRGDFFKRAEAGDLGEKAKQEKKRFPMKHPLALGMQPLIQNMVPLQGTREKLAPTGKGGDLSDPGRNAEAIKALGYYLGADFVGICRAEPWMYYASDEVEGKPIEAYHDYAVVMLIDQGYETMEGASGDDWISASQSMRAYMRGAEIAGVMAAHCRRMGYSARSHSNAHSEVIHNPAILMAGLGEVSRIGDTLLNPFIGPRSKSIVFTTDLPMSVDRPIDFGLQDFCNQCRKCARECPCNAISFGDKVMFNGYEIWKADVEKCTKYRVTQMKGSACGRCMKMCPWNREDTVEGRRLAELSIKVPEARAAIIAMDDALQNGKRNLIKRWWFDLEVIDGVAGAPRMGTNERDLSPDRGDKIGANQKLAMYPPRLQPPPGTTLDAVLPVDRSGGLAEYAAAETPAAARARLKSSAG

NpRdhA [3] = target: T2, NpRdhA; test: X-band continuous wave EPR of cob(II)alamin; format: binding; conditions: 20 mM ligand, 100 uM protein, 30 K

T1 sequence (K2MB66 entry or part of it A419M): as the sequence (K2MB66 entry or part of it) above, with A419M counted along it

O=C(O)c1ccc(O)c(Br)c1 [3-B-4-OH, 3-bromo-4-hydroxybenzoic acid]
HPLC of dehalogenation products (NpRdhA [1]): revealed the ability to dehalogenate 35-DB-4-OH, 3-B-4-OH, 35-DC-4-OH and 3-C-4-OH
X-ray crystal structure, soaked crystals (1.99 Å) (NpRdhA [2]; three conformations, one with Br ligating Co, one at the active site entrance): structure of the NpRdhA^N protein in complex with 3-B-4-OH obtained through soaking

O=C(O)c1cc(Br)c(O)c(Br)c1 [35-DB-4-OH, 3,5-dibromo-4-hydroxybenzoic acid]
HPLC of dehalogenation products (NpRdhA [1]): revealed the ability to dehalogenate 35-DB-4-OH, 3-B-4-OH, 35-DC-4-OH and 3-C-4-OH
X-ray crystal structure, soaked crystals (1.99 Å) (NpRdhA [2]; active site above cobalamin, Br at Co beta-axial position, partial photoreduction to 3-bromo-4-hydroxybenzoic acid): 35-DB-4-OH is located above the cobalamin

O=C(O)c1cc(Cl)c(O)c(Cl)c1 [35-DC-4-OH, 3,5-dichloro-4-hydroxybenzoic acid]
X-band continuous wave EPR of cob(II)alamin (NpRdhA [3]): a distinct change in both g and hyperfine coupling values on substrate binding
